{
  "source": "patent US4447608A",
  "about": "“Anti-cancer quinazoline derivatives” (priority 1979, dated 1984)",
  "key": {"[1]": {"tested_on": "L1210 cells", "test": "Growth inhibition of L1210 cells in suspension culture, 48 h count", "assay_type": "cell-based", "settings": "Mus musculus", "description": "(§1) Cells were diluted to 10^5 /ml and additions (diluted in medium and sterilised in Millipore filtration) made prior to starting each incubation. Cell counts were performed after 24 and 48 hours using an improved Neubauer haemocytometer."}, "[2]": {"tested_on": "L1210 cells", "test": "Reversal of toxicity to L1210 cells in culture by thymidine", "assay_type": "cell-based, mouse", "description": "as §1, with “L1210 and L1210:R71 cells were grown in continuous suspension culture in RPMI 1640 medium containing 10% horse serum (Flow Laboratories, Irvine, Scotland; UK). Cells” for “Cells”"}, "[3]": {"test": "Toxicity and body weight change in treated L1210 tumour-bearing mice", "assay_type": "in vivo, mice (female C57B1×DBA2 F1 hybrid)", "description": "(§2) The L1210 tumour was carried routinely in DBA2 mice. For experiments 5×10^4 cells were implanted i.p. into female C57B1×DBA2 F1 hybrid mice 3 days prior to treatment, giving an established tumour of about 2×10^6 cells at the time of treatment."}, "[4]": {"tested_on": "transport of tritiated methotrexate into L1210 cells", "test": "Inhibition of transport of tritiated methotrexate into L1210 cells", "assay_type": "cell-based, mouse", "description": "(§3) The compounds of Example 2 were evaluated in vitro as inhibitors as TS and cell growth and in vivo against the L1210 tumour. Since methotrexate (MTX) resistance is an important problem in cancer therapy, the compounds of the present invention were also investigated with this in mind. The cross-resistance of the MTX resistant cell line L1210/R71, which is known to have elevated DHFR but normal MTX transport, was measured in culture, and the ability of the compounds of the invention to compete with labelled MTX or folic acid for transport into L1210 cells was also assessed.\n(§4) Transport studies were conducted on compound CB 3717 as representative of the invention compounds by incubating cells in the presence of a labelled substance, removing aliquots, separating and washing the cells by centrifugation and counting the pellet."}, "[5]": {"tested_on": "L1210 cells", "test": "Reversal of toxicity to L1210 cells in culture by folinic acid", "assay_type": "cell-based, mouse", "settings": "folinic acid up to 100 μM; FIG. 1: 20 μM CB 3717", "description": "as §1, with “L1210 and L1210:R71 cells were grown in continuous suspension culture in RPMI 1640 medium containing 10% horse serum (Flow Laboratories, Irvine, Scotland; UK). Cells” for “Cells”"}, "[6]": {"tested_on": "L1210 tumour", "test": "Treatment of L1210 ascitic tumour-bearing mice, survival", "assay_type": "in vivo, mice (female C57B1×DBA2 F1 hybrid)", "settings": "for long term survivors (>120 days): FIG. 3", "description": "as §2\n(Animals were injected with 20 mM NaHCO3 buffer 0.4 ml daily×5 days.\nAs the injection solutions could only be neutralised to pH 8.5 while preserving solubility, the appropriate controls were injected with bicarbonate at pH 8.5. […] For comparative purposes further groups of animals were treated with various doses of methotrexate, given on the same schedule."}, "[7]": {"tested_on": "transport of tritiated folic acid into L1210 cells", "test": "Inhibition of transport of tritiated folic acid into L1210 cells", "assay_type": "cell-based, mouse", "description": "as §3, §4"}, "[8]": {"tested_on": "L1210:R71 cells", "test": "Growth inhibition of methotrexate-resistant L1210:R71 cells in suspension culture, 48 h count", "assay_type": "cell-based, mouse", "settings": "relative to L1210", "description": "The compounds of Example 2 were evaluated in vitro as inhibitors as TS and cell growth and in vivo against the L1210 tumour. Since methotrexate (MTX) resistance is an important problem in cancer therapy, the compounds of the present invention were also investigated with this in mind.\nas §1, with “L1210 and L1210:R71 cells were grown in continuous suspension culture in RPMI 1640 medium containing 10% horse serum (Flow Laboratories, Irvine, Scotland; UK). Cells” for “Cells”"}, "[9]": {"settings": "majority of cell types; cited from earlier work"}, "[10]": {"settings": "8 mg/kg i.p., daily × 5, 5 animals"}, "[11]": {"settings": "16 mg/kg i.p., daily × 5, 5 animals, first 16 mg/kg line"}, "[12]": {"settings": "16 mg/kg i.p., daily × 5, 5 animals, second 16 mg/kg line"}, "[13]": {"settings": "32 mg/kg i.p., daily × 5, 5 animals"}, "[14]": {"settings": "64 mg/kg i.p., daily × 5, 5 animals"}, "[15]": {"settings": "80 mg/kg i.p., single dose, 5 animals"}, "[16]": {"settings": "128 mg/kg i.p., daily × 5, 5 animals"}, "[17]": {"settings": "160 mg/kg i.p., single dose, 5 animals"}, "[18]": {"settings": "methotrexate 3 mg/kg (optimal dose), daily×5, 10 animals"}},
  "note": "“Also recorded” adds a separate entry of the source. Read-outs that look alike come from different tables or passages of the source.",
  "data": [
    {"compound": "C#CCN(Cc1ccc2nc(N)nc(O)c2c1)c1ccc(C(=O)N[C@@H](CCC(=O)O)C(=O)O)cc1", "note": "[CB 3717, N-(4-(N-((2-amino-4-hydroxy-6-quinazolinyl)methyl)prop-2-ynylamino)benzoyl)-L-glutamic acid]", "values": [
      {"measurement": "IC50", "setting": "[1]; L1210, 48 h, second results table, read-out: ID50 L1210 (Tissue culture)", "value": "6.5 to 8.5", "unit": "µM"},
      {"measurement": "IC50", "setting": "[1]; L1210, Table 2, 48 hour count reduced to 50% of control, read-out: ID50 L1210", "value": 5, "unit": "µM"},
      {"measurement": "Reversal by thymidine (in culture)", "setting": "[2]; second results table, L1210", "value": "yes"},
      {"measurement": "reversal of toxicity by co-incubation with thymidine", "setting": "[2]; thymidine 10 μM, FIG. 1: 20 μM CB 3717", "value": "Reversal of the toxicity; also recorded: virtually complete protection"},
      {"measurement": "body weight change / signs of toxicity", "setting": "[3]; 5 daily doses, 125 and 200 mg/kg/day, groups of 10 mice, FIG. 4", "value": "did not lose a significant amount of weight or show other signs of toxicity"},
      {"measurement": "toxicity of single doses", "setting": "[3]; single doses up to 160 mg/Kg i.p.", "value": "not toxic"},
      {"measurement": "apparent transport by the pathway used for methotrexate", "setting": "[4]", "value": "can apparently be transported by the pathway used for methotrexate"},
      {"measurement": "effect on transport of tritiated methotrexate", "setting": "[4]; 4 μM MTX, FIG. 2", "value": "inhibited; also recorded: dose-dependent reduction"},
      {"measurement": "reversal of toxicity by folinic acid", "setting": "[5]", "value": "only partial reversal; also recorded: does not reverse the effect"},
      {"measurement": "% Increase in mean survival time", "setting": "[6]; [10]", "value": 8, "unit": "%"},
      {"measurement": "Long term survivors (>200 days)", "setting": "[6]; [10]", "value": 0},
      {"measurement": "% Increase in mean survival time", "setting": "[6]; [11]", "value": 13, "unit": "%"},
      {"measurement": "Long term survivors (>200 days)", "setting": "[6]; [11]", "value": 0},
      {"measurement": "% Increase in mean survival time", "setting": "[6]; [12]", "value": 29, "unit": "%"},
      {"measurement": "Long term survivors (>200 days)", "setting": "[6]; [12]", "value": 0},
      {"measurement": "% Increase in mean survival time", "setting": "[6]; [13]", "value": 62, "unit": "%"},
      {"measurement": "Long term survivors (>200 days)", "setting": "[6]; [13]", "value": 0},
      {"measurement": "% Increase in mean survival time", "setting": "[6]; [14]", "value": 72, "unit": "%"},
      {"measurement": "Long term survivors (>200 days)", "setting": "[6]; [14]", "value": 0},
      {"measurement": "% Increase in mean survival time", "setting": "[6]; [15]", "value": 14, "unit": "%"},
      {"measurement": "Long term survivors (>200 days)", "setting": "[6]; [15]", "value": 0},
      {"measurement": "Long term survivors (>200 days)", "setting": "[6]; 125 mg/kg i.p., daily × 5, 10 animals", "value": 9},
      {"measurement": "% Increase in mean survival time", "setting": "[6]; 125 mg/kg i.p., daily × 5, 10 animals, see FIG. 3", "value": "> 1200", "unit": "%"},
      {"measurement": "long term survivors (>120 days)", "setting": "[6]; 125 mg/kg, 5 daily doses", "value": "9 out of 10"},
      {"measurement": "% Increase in mean survival time", "setting": "[6]; [16]", "value": "> 1200", "unit": "%"},
      {"measurement": "Long term survivors (>200 days)", "setting": "[6]; [16]", "value": 4},
      {"measurement": "% Increase in mean survival time", "setting": "[6]; [17]", "value": 32, "unit": "%"},
      {"measurement": "Long term survivors (>200 days)", "setting": "[6]; [17]", "value": 0},
      {"measurement": "Long term survivors (>200 days)", "setting": "[6]; 200 mg/kg i.p., daily × 5, 10 animals", "value": 9},
      {"measurement": "% Increase in mean survival time", "setting": "[6]; 200 mg/kg i.p., daily × 5, 10 animals, see FIG. 3", "value": "> 1200", "unit": "%"},
      {"measurement": "long term survivors (>120 days)", "setting": "[6]; 200 mg/kg, 5 daily doses", "value": "9 out of 10"},
      {"measurement": "increase in mean survival time with 5 daily dose schedule", "setting": "[6]; 5 daily doses, see Table 3", "value": "dose related"},
      {"measurement": "difference in survival of CB 3717 and MTX treated animals, p (log rank test)", "setting": "[6]; CB 3717 125 and 200 mg/kg vs MTX 3 mg/kg, daily×5", "value": "< 0.001"},
      {"measurement": "apparent transport by the pathway for folic acid", "setting": "[7]", "value": "also by that for folic acid"},
      {"measurement": "effect on transport of tritiated folic acid", "setting": "[7]; 4 μM folic acid, FIG. 2", "value": "inhibited; also recorded: dose-dependent reduction"}
    ]},
    {"compound": "CN(Cc1cnc2nc(N)nc(N)c2n1)c1ccc(C(=O)N[C@@H](CCC(=O)O)C(=O)O)cc1", "note": "[methotrexate, reference compound]", "values": [
      {"measurement": "resistance of L1210:R71 to MTX", "setting": "[8]", "value": "about 600 fold"},
      {"measurement": "metabolic degradation", "setting": "[9]", "value": "does not undergo significant metabolic degradation"},
      {"measurement": "increase in median lifespan", "setting": "[6]; [18]", "value": 71, "unit": "%"},
      {"measurement": "long term survivors", "setting": "[6]; [18]", "value": "2/10"}
    ]}
  ]
}
